{
  "source": "ChEMBL document CHEMBL3988181",
  "about": "“GlaxoSmithKline Published Kinase Inhibitor Set 2 Onchocerca lienalis Screening Data”",
  "data": [
    {"assay": "GSK PKIS2: Screen against O. lienalis microfilariae, single point, at 3.1uM to assess reduction in motility. Compounds were also tested for cytotoxicity against Rhesus Monkey LLCMK2 cells.", "type": "functional, Onchocerca lienalis, LLC-MK2", "conditions": "CELL_LINE LLCMK2; CELL_SUPPLIER ECACC; CONC 3.1 uM; ORGANISM_SUPPLIER Extracted from peri-umbilical skin obtained from naturally infected cattle in the UK; temperature 37 degree C", "units": {"MOTILITY REDUCTION/CYTOTOXICITY": "%"}, "values": [
      {"smiles": "COc1ccccc1CNC(=O)c1cc(C(=O)c2ccccc2C)c[nH]1", "MOTILITY REDUCTION/CYTOTOXICITY": 86.7},
      {"smiles": "C[C@@H](Oc1cc(-n2cnc3ccc(-c4ccncc4)cc32)sc1C(N)=O)c1ccccc1Cl", "MOTILITY REDUCTION/CYTOTOXICITY": 0},
      {"smiles": "Nc1nccc(-c2ccc3c(N)n[nH]c3c2)n1", "MOTILITY REDUCTION/CYTOTOXICITY": 0},
      {"smiles": "Nc1n[nH]c2cc(-c3ccccn3)ccc12", "MOTILITY REDUCTION/CYTOTOXICITY": 0},
      {"smiles": "O=c1[nH]cc(-c2ccc(O)cc2)c2sc(-c3ccncc3)cc12", "MOTILITY REDUCTION/CYTOTOXICITY": 0},
      {"smiles": "NC(=O)c1cc(-c2ccccc2)cc2c(C3CCNCC3)c[nH]c12", "MOTILITY REDUCTION/CYTOTOXICITY": 0},
      {"smiles": "CC(C)(C)OC(=O)NC1CCCN(c2cc(-c3ccc4c(N)n[nH]c4c3)nc(N)n2)C1", "note": "(stereo not given)", "MOTILITY REDUCTION/CYTOTOXICITY": 0},
      {"smiles": "Nc1nc(-c2ccc3c(N)n[nH]c3c2)cc(N2CCCC2)n1", "MOTILITY REDUCTION/CYTOTOXICITY": 0},
      {"smiles": "CC(C)c1nc(-c2cccc(NS(=O)(=O)c3c(F)cccc3F)c2F)c(-c2ccnc(Nc3ccc(N4CCOCC4)nc3)n2)s1", "MOTILITY REDUCTION/CYTOTOXICITY": 93.4},
      {"smiles": "Cc1cccc(Nc2nc(N[C@H]3CCCC[C@H]3N)ncc2C(N)=O)c1", "MOTILITY REDUCTION/CYTOTOXICITY": 40},
      {"smiles": "Nc1nc(-c2ccccc2F)c(-c2ccnc3ccccc23)s1", "MOTILITY REDUCTION/CYTOTOXICITY": 46.7},
      {"smiles": "CCS(=O)(=O)c1ccc(OC)c(Nc2ncc(-c3ccc(F)cc3)o2)c1", "MOTILITY REDUCTION/CYTOTOXICITY": 0},
      {"smiles": "CN1CCN(CCCNc2nccc(-c3c(-c4ccc(F)cc4)nn4cc(C(N)=O)ccc34)n2)CC1", "MOTILITY REDUCTION/CYTOTOXICITY": 13.4},
      {"smiles": "O=c1cc(N2CCOCC2)nc2n(Cc3cccc(Cl)c3Cl)ccn12", "MOTILITY REDUCTION/CYTOTOXICITY": 80},
      {"smiles": "O=c1cc(N2CCOCC2)nc2n(Cc3ccccc3F)ccn12", "MOTILITY REDUCTION/CYTOTOXICITY": 0},
      {"smiles": "O=c1cc(N2CCOCC2)nc2n(Cc3cccc(C(F)(F)F)c3)ccn12", "MOTILITY REDUCTION/CYTOTOXICITY": 26.7},
      {"smiles": "Cc1c(Cn2ccn3c(=O)cc(N4CCOCC4)nc23)cccc1C(F)(F)F", "MOTILITY REDUCTION/CYTOTOXICITY": 0},
      {"smiles": "O=c1cc(N2CCOCC2)nc2n(Cc3cccc(Cl)c3Cl)c3ccccc3n12", "MOTILITY REDUCTION/CYTOTOXICITY": 0},
      {"smiles": "Cc1c(Cn2ccn3c(=O)nc(N4CCOCC4)cc23)cccc1C(F)(F)F", "MOTILITY REDUCTION/CYTOTOXICITY": 0},
      {"smiles": "CSc1nn2c(=O)cc(N3CCOCC3)nc2n1Cc1cccc(Cl)c1Cl", "MOTILITY REDUCTION/CYTOTOXICITY": 46.7},
      {"smiles": "Cc1cccc(-c2cc(-c3c[nH]nc3-c3ccccn3)ccn2)c1", "MOTILITY REDUCTION/CYTOTOXICITY": 0},
      {"smiles": "c1ccc(-c2cc(-c3c[nH]nc3-c3ccccn3)ccn2)cc1", "MOTILITY REDUCTION/CYTOTOXICITY": 0},
      {"smiles": "Nc1ncc(-c2cccnc2)c2scc(-c3ccc4c(c3)CCN4C(=O)Cc3ccccc3)c12", "MOTILITY REDUCTION/CYTOTOXICITY": 0},
      {"smiles": "COC(=O)Nc1nc2ccc(Oc3ccc(NC(=O)Nc4cc(C(F)(F)F)ccc4F)cn3)cc2[nH]1", "MOTILITY REDUCTION/CYTOTOXICITY": 0},
      {"smiles": "COC(=O)Nc1nc2ccc(Oc3ccc(CC(=O)Nc4cc(C(F)(F)F)ccc4F)cc3)cc2[nH]1", "MOTILITY REDUCTION/CYTOTOXICITY": 33.4},
      {"smiles": "c1ccc(-c2n[nH]cc2-c2ccnc3ccccc23)nc1", "MOTILITY REDUCTION/CYTOTOXICITY": 0},
      {"smiles": "Nc1nc(-c2nccs2)c(-c2ccnc3ccccc23)s1", "MOTILITY REDUCTION/CYTOTOXICITY": 0},
      {"smiles": "FC(F)(F)c1ccc(-c2cc(-c3c[nH]nc3-c3ccccn3)ccn2)cc1", "MOTILITY REDUCTION/CYTOTOXICITY": 0},
      {"smiles": "COC(=O)Nc1nc2cc(Oc3ccc(NC(=O)Nc4cc(C(F)(F)F)ccc4F)cc3)ccc2[nH]1", "MOTILITY REDUCTION/CYTOTOXICITY": 0},
      {"smiles": "Cc1nnc(-c2ccc(C)c(-c3ccc(C(=O)Nc4ccc(NS(C)(=O)=O)cc4)cc3)c2)o1", "MOTILITY REDUCTION/CYTOTOXICITY": 0},
      {"smiles": "CS(=O)(=O)Nc1ccc(-c2ccnc3[nH]ccc23)cc1", "MOTILITY REDUCTION/CYTOTOXICITY": 0},
      {"smiles": "NCCC(NC(=O)c1cc(Br)c(-c2ccnc3[nH]ccc23)s1)c1ccccc1", "note": "(stereo not given)", "MOTILITY REDUCTION/CYTOTOXICITY": 13.4},
      {"smiles": "NCC(NC(=O)c1cc(-c2ccccc2)c(-c2ccnc3[nH]ccc23)s1)c1ccccc1", "note": "(stereo not given)", "MOTILITY REDUCTION/CYTOTOXICITY": 0},
      {"smiles": "c1ccc(-c2cc3ccncc3cc2OC2CCNCC2)cc1", "MOTILITY REDUCTION/CYTOTOXICITY": 93.4},
      {"smiles": "Cc1cc(N2Cc3ccccc3C2)nc(Nc2ccc(S(=O)(=O)N3CCOCC3)cc2)n1", "MOTILITY REDUCTION/CYTOTOXICITY": 0},
      {"smiles": "CC(=O)c1c(-c2ccncc2)[nH]c(-c2ccncc2)c1C", "MOTILITY REDUCTION/CYTOTOXICITY": 33.4},
      {"smiles": "O=C(NCCNc1ccnc(Nc2ccc(F)cc2)n1)Nc1ccccc1F", "MOTILITY REDUCTION/CYTOTOXICITY": 0},
      {"smiles": "NS(=O)(=O)CCc1cccc(Nc2nccc(-c3c(-c4cccc(NC(=O)c5c(F)cccc5F)c4)nn4ccccc34)n2)c1", "MOTILITY REDUCTION/CYTOTOXICITY": 33.4},
      {"smiles": "Cc1ccc(C(=O)Nc2ccc(Nc3ccnc4cc(-c5ccccn5)ccc34)cc2O)cc1", "MOTILITY REDUCTION/CYTOTOXICITY": 0},
      {"smiles": "Cn1cncc1-c1cc2c(Nc3ccc(OCc4ccccc4)cc3)ncnc2cn1", "MOTILITY REDUCTION/CYTOTOXICITY": 0},
      {"smiles": "Cc1ccc(NC(=O)c2ccc(Cl)c(Cl)c2)cc1-c1ccc(C(=O)Nc2ccncc2)cc1", "MOTILITY REDUCTION/CYTOTOXICITY": 26.7},
      {"smiles": "Cc1ccc(Nc2ccnc(Nc3ccc4c(c3)CS(=O)(=O)C4)n2)cc1O", "MOTILITY REDUCTION/CYTOTOXICITY": 80},
      {"smiles": "COc1cc(Nc2nccc(N3CCC(NC(=O)Nc4cccc(C(C)=O)c4)C3)n2)cc(OC)c1OC", "note": "(stereo not given)", "MOTILITY REDUCTION/CYTOTOXICITY": 100},
      {"smiles": "Clc1cc(Cl)cc(Nc2ccnc(Nc3cc(Cl)cc(Cl)c3)n2)c1", "MOTILITY REDUCTION/CYTOTOXICITY": 86.7},
      {"smiles": "COc1ccc(Nc2nccc(NCCNC(=O)c3cc4ccccc4s3)n2)cc1", "MOTILITY REDUCTION/CYTOTOXICITY": 16.7},
      {"smiles": "COc1ccc(Nc2nccc(-c3ccc(NC(=O)c4cc5cc(F)ccc5[nH]4)cc3)n2)cc1", "MOTILITY REDUCTION/CYTOTOXICITY": 60},
      {"smiles": "N#Cc1ccc(CCNc2nccc(-c3cccc(CN4CCNCC4)c3)n2)cc1", "MOTILITY REDUCTION/CYTOTOXICITY": 0},
      {"smiles": "Cc1ccc(NC(=O)Nc2ccccc2)cc1-c1ccc(C(=O)Nc2ccncc2)cc1", "MOTILITY REDUCTION/CYTOTOXICITY": 100},
      {"smiles": "O=c1[nH]ccc2nc(N[C@@H]3CCNC3)nc(Nc3ccc4c(c3)S(=O)(=O)CC4)c12", "MOTILITY REDUCTION/CYTOTOXICITY": 0},
      {"smiles": "Nc1ncc(-c2ccc3nccc(-c4ccncc4)c3c2)cc1S(=O)(=O)N1CCCCC1", "MOTILITY REDUCTION/CYTOTOXICITY": 33.4},
      {"smiles": "CN1CCN(Cc2cccc(-c3ccc4c(Nc5ccc(Oc6ccccc6)cc5)ccnc4c3)c2)CC1", "MOTILITY REDUCTION/CYTOTOXICITY": 100},
      {"smiles": "COc1ccc(Nc2nccc(N3CCC(NC(=O)C(C)c4ccc(Cl)cc4)CC3)n2)cc1", "note": "(stereo not given)", "MOTILITY REDUCTION/CYTOTOXICITY": 33.4},
      {"smiles": "COc1ccc(Nc2nccc(N3CCC(NC(=O)Nc4cc(C)ccc4C)C3)n2)cc1", "note": "(stereo not given)", "MOTILITY REDUCTION/CYTOTOXICITY": 0},
      {"smiles": "Cc1cccc(-c2nc(C)cc(Nc3ccncc3)n2)n1", "MOTILITY REDUCTION/CYTOTOXICITY": 0},
      {"smiles": "COC(=O)c1cccc(NC(=O)NCCNc2ccnc(Nc3ccc(F)cc3)n2)c1", "MOTILITY REDUCTION/CYTOTOXICITY": 0},
      {"smiles": "O=C(Nc1cccc(-c2nn3ncccc3c2-c2ccnc(Nc3ccccc3)n2)c1)c1c(F)cccc1F", "MOTILITY REDUCTION/CYTOTOXICITY": 0},
      {"smiles": "Cc1ccc(C)c(NC(=O)NCCNc2ccnc(Nc3ccc(F)cc3)n2)c1", "MOTILITY REDUCTION/CYTOTOXICITY": 86.7},
      {"smiles": "COc1cccc(NC(=O)Nc2ccc(C)c(-c3ccc(C(=O)Nc4ccncc4)cc3)c2)c1", "MOTILITY REDUCTION/CYTOTOXICITY": 100},
      {"smiles": "COc1cc2ncnc(Nc3ccc4nc(-c5ccccc5)[nH]c4c3)c2cc1OC", "MOTILITY REDUCTION/CYTOTOXICITY": 73.4},
      {"smiles": "Fc1cc(Cl)ccc1Nc1ccnc2cc(I)ccc12", "MOTILITY REDUCTION/CYTOTOXICITY": 33.4},
      {"smiles": "O=C(Nc1ccc2c(c1)OCO2)NC1CCN(c2ccnc(NCc3ccc(F)cc3)n2)CC1", "MOTILITY REDUCTION/CYTOTOXICITY": 33.4},
      {"smiles": "COc1cc(Nc2nccc(N3CCC(NC(=O)C(C)c4ccc(Cl)cc4)C3)n2)cc(OC)c1OC", "note": "(stereo not given)", "MOTILITY REDUCTION/CYTOTOXICITY": 66.7},
      {"smiles": "c1ccc(-c2n[nH]cc2Nc2ccnc3ccccc23)nc1", "MOTILITY REDUCTION/CYTOTOXICITY": 100},
      {"smiles": "Cc1ccc(C)c(NC(=O)Nc2ccc(C)c(-c3ccc(C(=O)Nc4ccncc4)cc3)c2)c1", "MOTILITY REDUCTION/CYTOTOXICITY": 33.4},
      {"smiles": "COC(=O)C(Cc1ccccc1)NC(=O)NC1CCN(c2ccnc(Nc3ccc(F)cc3)n2)C1", "note": "(stereo not given)", "MOTILITY REDUCTION/CYTOTOXICITY": 13.4}
    ]}
  ]
}
